# Measurements: the NIST ThermoML archive (doi:10.1021/acs.jced.8b01189)
# ± gives the expanded uncertainty stated by the source.
# Columns and labels:
# [1] = xn = mol fraction of the nth substance listed; details: 298.15 K, 100 kPa, Liquid, Vibrating tube method
# [2] = 298.15 K; 100 kPa; Liquid; Vibrating tube method
structure (smiles),measurement,setting,value
CCCCC(=O)O [pentanoic acid] + CCCCCCCO,mass density,[1]; x1 = 0.0812,826.5 ± 1 kg/m3
same,mass density,[1]; x1 = 0.1601,834.3 ± 1 kg/m3
same,mass density,[1]; x1 = 0.24,842.5 ± 1 kg/m3
same,mass density,[1]; x1 = 0.3506,854.2 ± 1 kg/m3
same,mass density,[1]; x1 = 0.4398,864 ± 1 kg/m3
same,mass density,[1]; x1 = 0.5605,877.8 ± 1 kg/m3
same,mass density,[1]; x1 = 0.6496,888.5 ± 1 kg/m3
same,mass density,[1]; x1 = 0.7405,899.7 ± 1 kg/m3
same,mass density,[1]; x1 = 0.8501,914.1 ± 1 kg/m3
same,mass density,[1]; x1 = 0.9405,926.5 ± 1 kg/m3
same,mass density,[1]; x1 = 1,935.1 ± 1 kg/m3
CCCCCO [pentan-1-ol] + CCCCC(=O)O,mass density,[1]; x2 = 0,810.8 ± 1 kg/m3
CCCCC(=O)O [pentanoic acid],mass density,[2],935.1 ± 1 kg/m3
CCCCCCCCCO [nonan-1-ol],mass density,[2],824 ± 1 kg/m3
CCCCC(=O)O [pentanoic acid] + CCCCCCCCCCO,mass density,[1]; x1 = 0.0809,831.4 ± 1 kg/m3
same,mass density,[1]; x1 = 0.1598,837 ± 1 kg/m3
same,mass density,[1]; x1 = 0.2406,843 ± 1 kg/m3
same,mass density,[1]; x1 = 0.3493,852 ± 1 kg/m3
same,mass density,[1]; x1 = 0.4405,860.2 ± 1 kg/m3
same,mass density,[1]; x1 = 0.5601,872.3 ± 1 kg/m3
same,mass density,[1]; x1 = 0.6502,882.5 ± 1 kg/m3
same,mass density,[1]; x1 = 0.7406,893.9 ± 1 kg/m3
same,mass density,[1]; x1 = 0.8504,909.6 ± 1.1 kg/m3
same,mass density,[1]; x1 = 0.9411,924.2 ± 1.1 kg/m3
same,mass density,[1]; x1 = 1,935.1 ± 1 kg/m3
CCCCC(=O)O [pentanoic acid] + CCCCCCCCCO,mass density,[1]; x1 = 0.0802,830 ± 1 kg/m3
same,mass density,[1]; x1 = 0.1604,836.1 ± 1 kg/m3
same,mass density,[1]; x1 = 0.2394,842.8 ± 1 kg/m3
same,mass density,[1]; x1 = 0.3496,852.5 ± 1 kg/m3
same,mass density,[1]; x1 = 0.4397,861.2 ± 1 kg/m3
same,mass density,[1]; x1 = 0.5605,873.9 ± 1 kg/m3
same,mass density,[1]; x1 = 0.6497,884.3 ± 1 kg/m3
same,mass density,[1]; x1 = 0.7401,895.6 ± 1 kg/m3
same,mass density,[1]; x1 = 0.8502,911 ± 1 kg/m3
same,mass density,[1]; x1 = 0.9403,925 ± 1.1 kg/m3
same,mass density,[1]; x1 = 1,935.1 ± 1 kg/m3
CCCCCCCCCCO [decan-1-ol] + CCCCC(=O)O,mass density,[1]; x2 = 0,826.1 ± 1 kg/m3
CCCCC(=O)O [pentanoic acid] + CCCCCCCCO,mass density,[1]; x1 = 0.0809,828.2 ± 1 kg/m3
same,mass density,[1]; x1 = 0.1604,835.1 ± 1 kg/m3
same,mass density,[1]; x1 = 0.2392,842.4 ± 1 kg/m3
same,mass density,[1]; x1 = 0.3496,853 ± 1 kg/m3
same,mass density,[1]; x1 = 0.4399,862.3 ± 1 kg/m3
same,mass density,[1]; x1 = 0.5605,875.5 ± 1 kg/m3
same,mass density,[1]; x1 = 0.6497,886.1 ± 1 kg/m3
same,mass density,[1]; x1 = 0.7401,897.4 ± 1 kg/m3
same,mass density,[1]; x1 = 0.8504,912.4 ± 1 kg/m3
same,mass density,[1]; x1 = 0.9403,925.7 ± 1.1 kg/m3
same,mass density,[1]; x1 = 1,935.1 ± 1 kg/m3
CCCCCCCCCCO [decan-1-ol],mass density,[2],826.1 ± 1 kg/m3
CCCCC(=O)O [pentanoic acid] + CCCCCO,mass density,[1]; x1 = 0.0807,821.4 ± 1 kg/m3
same,mass density,[1]; x1 = 0.1596,831.9 ± 1 kg/m3
same,mass density,[1]; x1 = 0.2398,842.4 ± 1 kg/m3
same,mass density,[1]; x1 = 0.3501,856.7 ± 1 kg/m3
same,mass density,[1]; x1 = 0.4401,868.2 ± 1 kg/m3
same,mass density,[1]; x1 = 0.5604,883.1 ± 1 kg/m3
same,mass density,[1]; x1 = 0.6498,894 ± 1 kg/m3
same,mass density,[1]; x1 = 0.7399,904.7 ± 1 kg/m3
same,mass density,[1]; x1 = 0.8498,917.6 ± 1 kg/m3
same,mass density,[1]; x1 = 0.9396,928.1 ± 1 kg/m3
same,mass density,[1]; x1 = 1,935.1 ± 1 kg/m3
CCCCCCCO [heptan-1-ol],mass density,[2],818.7 ± 1 kg/m3
CCCCCCCO [heptan-1-ol] + CCCCC(=O)O,mass density,[1]; x2 = 0,818.7 ± 1 kg/m3
CCCCCCCCO [octan-1-ol] + CCCCC(=O)O,mass density,[1]; x2 = 0,821.4 ± 1 kg/m3
CCCCCCCCO [octan-1-ol],mass density,[2],821.4 ± 1 kg/m3
CCCCC(=O)O [pentanoic acid] + CCCCCCO,mass density,[1]; x1 = 0.0924,825.4 ± 1 kg/m3
same,mass density,[1]; x1 = 0.1783,835.2 ± 1 kg/m3
same,mass density,[1]; x1 = 0.264,845.1 ± 1 kg/m3
same,mass density,[1]; x1 = 0.3796,858.6 ± 1 kg/m3
same,mass density,[1]; x1 = 0.4718,869.5 ± 1 kg/m3
same,mass density,[1]; x1 = 0.5914,883.9 ± 1 kg/m3
same,mass density,[1]; x1 = 0.6785,894.5 ± 1 kg/m3
same,mass density,[1]; x1 = 0.7639,905 ± 1 kg/m3
same,mass density,[1]; x1 = 0.8656,917.8 ± 1 kg/m3
same,mass density,[1]; x1 = 0.9468,928.2 ± 1 kg/m3
same,mass density,[1]; x1 = 1,935.1 ± 1 kg/m3
CCCCCCO [hexan-1-ol],mass density,[2],815.1 ± 1 kg/m3
CCCCCCO [hexan-1-ol] + CCCCC(=O)O,mass density,[1]; x2 = 0,815.1 ± 1 kg/m3
CCCCCCCCCO [nonan-1-ol] + CCCCC(=O)O,mass density,[1]; x2 = 0,824 ± 1 kg/m3
CCCCCO [pentan-1-ol],mass density,[2],810.8 ± 1 kg/m3
